The text below walks through data of patent US20180215781A1, “BETUIN DERIVATIVES FOR PREVENTING OR TREATING HIV INFECTIONS” (GLAXOSMITHKLINE INTELLECTUAL PROPERTY (NO.2) LIMITED, priority 2015, published 2018).

pEC50: −log10 of the molar value. Structures can show the parent of a compound that is named as a salt.

Assay [1] relates to V370A. Description: MT4 Cell Antiviral Assay, V370A. Type of assay: cell-based, HIV-1. The following applies: Human immunodeficiency virus 1, MT4, read-out: EC50V370A.
Assay [2] has as its system NL4-3 wt. The assay is described as follows: MT4 Cell Antiviral Assay, NL4-3 wt. The following applies: Human immunodeficiency virus 1, NL43, HIV MT4 Antiviral Cell Assay of Example 11. Type of assay: cell-based, HIV-1.
The subject of assay [3] is HIV. To be noted: cited from earlier work.

Regarding `CC(C)C1=C2[C@H]3CC[C@@H]4[C@@]5(C)CC=C(C6=CCC(C(=O)O)CC6)C(C)(C)[C@@H]5CC[C@@]4(C)[C@]3(C)CC[C@@]2([C@@H](O)CN(CC2CC2)C(=O)CN2CCCC2)CC1=O` (stereo partly drawn) [Example 3, 4-((3aR,5aR,5bR,7aR,11aS, 11bR,13aS)-3a-((R)-2-(N-(cyclopropylmethyl)-2-(pyrrolidin-1-yl)acetamido)-1-hydroxyethyl)-1-isopropyl-5a,5b,8,8,11a-pentamethyl-2-oxo-3,3a,4,5,5a,5b,6,7,7a,8, 11,11a,11b,12,13,13a-hexadecahydro-2H-cyclopenta[a]chrysen-9-yl)cyclohex-3-enecarboxylic acid], the results for the pEC50 in assay [1] and in assay [2] were 8.43 and 8.48, respectively.
For `CC(C)C1=C2[C@H]3CC[C@@H]4[C@@]5(C)CC=C(C6=CCC(C(=O)O)CC6)C(C)(C)[C@@H]5CC[C@@]4(C)[C@]3(C)CC[C@@]2([C@@H](O)CN(CC2CC2)C(=O)CN2CCCC2=O)CC1=O` (stereo partly drawn) [Example 4, 4-((3aR,5aR,5bR,7aR,11aS, 11bR,13aS)-3a-((R)-2-(N-(cyclopropylmethyl)-2-(2-oxopyrrolidin-1-yl)acetamido)-1-hydroxyethyl)-1-isopropyl-5a,5b,8,8,11a-pentamethyl-2-oxo-3,3a,4,5,5a,5b,6,7,7a,8, 11,11a,11b,12,13,13a-hexadecahydro-2H-cyclopenta[a]chrysen-9-yl)cyclohex-3-enecarboxylic acid] the same measures were 7.68 and 8.15.
In the case of `C=C(C)[C@@H]1CC[C@]2(C(=O)O)CC[C@]3(C)[C@H](CC[C@@H]4[C@@]5(C)CC[C@H](OC(=O)CC(C)(C)C(=O)O)C(C)(C)[C@@H]5CC[C@]43C)[C@@H]12` [Bevirimat], in assay [3] (patients with trough levels >=20 μg/mL and without key baseline Gag polymorphisms at Q369, V370 or T371), the “reduced HIV viral load, mean” value was 1.3 log10/mL. Also, the “viral load reductions versus patients without Gag polymorphisms” value in assay [3] (users with Gag polymorphisms at Q369, V370 or T371) was “significantly lower load reductions”.
Regarding `CC(C)C1=C2[C@H]3CC[C@@H]4[C@@]5(C)CC=C(C6=CCC(C(=O)O)CC6)C(C)(C)[C@@H]5CC[C@@]4(C)[C@]3(C)CC[C@@]2([C@@H](O)CN(CC2CC2)C(=O)CN(C)C)CC1=O` (stereo partly drawn) [Example 2, 4-((3aR,5aR,5bR,7aR,11aS, 11bR,13aS)-3a-((R)-2-(N-(cyclopropylmethyl)-2-(dimethylamino)acetamido)-1-hydroxyethyl)-1-isopropyl-5a,5b,8,8,11a-pentamethyl-2-oxo-3,3a,4,5,5a,5b,6,7,7a,8, 11,11a,11b,12,13,13a-hexadecahydro-2H-cyclopenta[a]chrysen-9-yl)cyclohex-3-enecarboxylic acid], the pEC50 in assay [1] was 7.95; in assay [2], 8.27.
`COCC(=O)N(CC1CC1)C[C@H](O)[C@@]12CC[C@]3(C)[C@H](CC[C@@H]4[C@@]5(C)CC=C(C6=CCC(C(=O)O)CC6)C(C)(C)[C@@H]5CC[C@]43C)C1=C(C(C)C)C(=O)C2` (stereo partly drawn) [Example 1, 4-((3aR,5aR,5bR,7aR,11aS, 11bR,13aS)-3a-((R)-2-(N-(cyclopropylmethyl)-2-methoxyacetamido)-1-hydroxyethyl)-1-isopropyl-5a,5b,8,8,11a-pentamethyl-2-oxo-3,3a,4,5,5a,5b,6,7,7a,8, 11,11a,11b,12,13,13a-hexadecahydro-2H-cyclopenta[a]chrysen-9-yl)cyclohex-3-enecarboxylic acid]: the pEC50 in assay [1] is 8.05; in assay [2], 8.10.
As for `COCC(=O)N(CC1CCC1)C[C@H](O)[C@@]12CC[C@]3(C)[C@H](CC[C@@H]4[C@@]5(C)CC=C(C6=CCC(C(=O)O)CC6)C(C)(C)[C@@H]5CC[C@]43C)C1=C(C(C)C)C(=O)C2` (stereo partly drawn) [Example 6, 4-((3aR,5aR,5bR,7aR,11aS, 11bR,13aS)-3a-((R)-2-(N-(cyclobutylmethyl)-2-methoxyacetamido)-1-hydroxyethyl)-1-isopropyl-5a,5b,8,8,11a-pentamethyl-2-oxo-3,3a,4,5,5a,5b,6,7,7a,8, 11,11a,11b,12,13,13a-hexadecahydro-2H-cyclopenta[a]chrysen-9-yl)cyclohex-3-enecarboxylic acid], the pEC50 in assay [1] was 7.69; in assay [2] it was 8.00.
In the same order, the values of `CC(C)C1=C2[C@H]3CC[C@@H]4[C@@]5(C)CC=C(C6=CCC(C(=O)O)CC6)C(C)(C)[C@@H]5CC[C@@]4(C)[C@]3(C)CC[C@@]2([C@@H](O)CNCC2CC2)CC1=O` (stereo partly drawn) [Example 10, 4-((3aR,5aR,5bR,7aR,11aS, 11bR,13aS)-3a-((R)-2-((cyclopropylmethyl)amino)-1-hydroxyethyl)-1-isopropyl-5a,5b,8,8,11a-pentamethyl-2-oxo-3,3a,4,5,5a,5b,6,7,7a,8, 11,11a,11b,12,13,13a-hexadecahydro-2H-cyclopenta[a]chrysen-9-yl)cyclohex-3-enecarboxylic acid] are 4.60 and 8.03.
In the same order, the values of `CC(C)C1=C2[C@H]3CC[C@@H]4[C@@]5(C)CC=C(C6=CCC(C(=O)O)CC6)C(C)(C)[C@@H]5CC[C@@]4(C)[C@]3(C)CC[C@@]2([C@@H](O)CN(CCN(C)C)Cc2ccc(Cl)cc2)CC1=O` (stereo partly drawn) [Example 9, 4-((3aR,5aR,5bR,7aR,11aS, 11bR,13aS)-3a-((R)-2-((4-chlorobenzyl)(2-(dimethylamino)ethyl)amino)-1-hydroxyethyl)-1-isopropyl-5a,5b,8,8,11a-pentamethyl-2-oxo-3,3a,4,5,5a,5b,6,7,7a,8, 11,11a,11b,12,13,13a-hexadecahydro-2H-cyclopenta[a]chrysen-9-yl)cyclohex-3-enecarboxylic acid dihydrochloride] are 7.97 and 8.17.
Turning to `CC(C)C1=C2[C@H]3CC[C@@H]4[C@@]5(C)CC=C(C6=CCC(C(=O)O)CC6)C(C)(C)[C@@H]5CC[C@@]4(C)[C@]3(C)CC[C@@]2([C@@H](O)CN(CC2CCC2)C(=O)CN2CCCC2)CC1=O` (stereo partly drawn) [Example 7, 4-((3aR,5aR,5bR,7aR,11aS, 11bR,13aS)-3a-((R)-2-(N-(cyclobutylmethyl)-2-(pyrrolidin-1-yl)acetamido)-1-hydroxyethyl)-1-isopropyl-5a,5b,8,8,11a-pentamethyl-2-oxo-3,3a,4,5,5a,5b,6,7,7a,8, 11,11a,11b,12,13,13a-hexadecahydro-2H-cyclopenta[a]chrysen-9-yl)cyclohex-3-enecarboxylic acid], the pEC50 was 8.39 in assay [1] and 8.24 in assay [2].
